Activity calls are given as the source filed them.
Tests used:
[1] = P. falciparum Dd2 growth inhibitors, dose response, SYBR Green, cherry-picked samples (AID 1159567); type: functional, cell-based
[2] = cytotoxicity toward Colo320 cells – cell-based, CellTiter-Glo luminescence, IC50, dose response (AID 1117334); type: functional; details: COLO 320
[3] = SNU-C1 cell viability reduction, dose response, CellTiter-Glo luminescence (AID 1117323); type: functional, cell-based
[4] = cytotoxicity toward HT-29 cells – cell-based, CellTiter-Glo luminescence, IC50, dose response (AID 1117330); type: functional
[5] = HCT116 cell viability decrease, GSK3B pretreatment – CellTiter-Glo, IC50, dose response (AID 1117339); type: functional; details: HCT-116
[6] = CellTiter-Glo luminescent dose response of DLD-1 viability loss (AID 1117352); type: functional
[7] = cytotoxicity toward HCT116 cells – cell-based, CellTiter-Glo luminescence, IC50, dose response (AID 1117332); type: functional; details: HCT-116
[8] = RKO cell viability reduction, dose response, CellTiter-Glo luminescence (AID 1117322); type: functional
[9] = Concentration-dependent survival of SW480 colon cancer line, luminescence detection with CellTiter-Glo, half-maximal inhibitory concentration (AID 1117338); type: functional
[10] = target: Mu-type opioid receptor (Homo sapiens, UniProt P35372); type: functional, cell-based;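 also: U2OS cells with beta-arrestin recruitment to OPRM1 by beta-gal complementation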
Chain of Mu-type opioid receptor (P35372 whole entry): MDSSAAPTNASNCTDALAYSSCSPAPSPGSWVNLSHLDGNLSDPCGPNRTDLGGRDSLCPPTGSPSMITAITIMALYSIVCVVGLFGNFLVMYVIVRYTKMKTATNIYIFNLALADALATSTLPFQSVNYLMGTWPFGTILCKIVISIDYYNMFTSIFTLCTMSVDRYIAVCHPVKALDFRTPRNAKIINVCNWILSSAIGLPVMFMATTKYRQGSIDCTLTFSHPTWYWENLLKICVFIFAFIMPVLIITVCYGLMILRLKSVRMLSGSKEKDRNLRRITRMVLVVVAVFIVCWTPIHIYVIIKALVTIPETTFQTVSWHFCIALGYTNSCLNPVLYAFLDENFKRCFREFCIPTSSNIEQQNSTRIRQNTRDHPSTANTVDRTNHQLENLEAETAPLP

[11] = target: 5-hydroxytryptamine receptor 2A (Mus musculus, UniProt P35363); type: functional, cell-based;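 also: CHO-K1 cells with tagged receptor and beta-arrestin; agonist potency measured as compound-induced activation of the receptor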
Chain of 5-hydroxytryptamine receptor 2A (P35363 whole entry, the tested form may be a part): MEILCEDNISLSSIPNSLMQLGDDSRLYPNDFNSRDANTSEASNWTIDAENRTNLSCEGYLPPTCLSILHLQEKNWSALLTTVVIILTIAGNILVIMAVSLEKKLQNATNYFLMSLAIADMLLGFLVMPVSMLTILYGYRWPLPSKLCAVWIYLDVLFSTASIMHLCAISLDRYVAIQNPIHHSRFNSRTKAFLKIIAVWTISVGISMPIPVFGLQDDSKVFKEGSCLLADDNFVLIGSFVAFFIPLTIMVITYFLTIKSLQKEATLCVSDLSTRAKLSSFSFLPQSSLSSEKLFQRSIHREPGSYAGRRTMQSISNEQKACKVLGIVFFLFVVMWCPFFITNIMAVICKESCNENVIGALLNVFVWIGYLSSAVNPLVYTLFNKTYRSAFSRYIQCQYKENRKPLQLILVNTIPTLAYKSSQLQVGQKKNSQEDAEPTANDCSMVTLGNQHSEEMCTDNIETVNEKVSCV

[12] = off-target signal loss in HeLa-CEM21 co-culture – HeLa F-luc CTL cells, cherry-picked, counter-screen for HIV-1 Env fusion inhibitor project, dose response (AID 652040); type: functional, cell-based;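 also: potency for signal decrease marking cytotoxic or nonspecific inhibition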
[13] = Luminescence Cell-Based Dose Response HTS to Identify Inhibitors of 5'UTR Stem-Loop Driven Prion Protein mRNA Translation in H4 Neuroglioblastoma Cells. [Related pubchem assays: 1827 (Project Summary), 1813 (Primary HTS)]; type: functional
[14] = ZM109 Env clade C HIV-1 fusion inhibitors, dose response, HeLa effector, CEM target cells, luciferase, cherry-pick (AID 652058); type: functional, cell-based
[15] = CEM21 lymphoblast cell cytotoxicity, dose response, cytotoxicity control for viral fusion inhibitor project, CellTiter-Glo luminescence, cherry-picked (AID 652042); type: functional, cell-based;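 also: potency for signal decrease meaning cytotoxicity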
[16] = inhibitors of firefly luciferase expression or activity, dose response, H4 neuroglioma cells, luminescence (AID 1990); type: functional, cell-based
[17] = inhibitors of HIV Env-driven cell fusion, dose response, cherry-pick (AID 652057); type: functional, cell-based
[18] = inhibitors of SNCA 5'UTR-driven reporter translation, confirmation, H4 neuroglioma cells, luminescence (AID 1988); type: functional, cell-based
[19] = cells; type: functional, cell-based
[20] = inhibitors of clade B AD8 Env fusion, dose response, cell-based, cherry-pick (AID 652062); type: functional;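 also: luciferase signal from cell-cell fusion driven by HIV-1 clade B AD8 Env; potency is for inhibitors of fusion seen as a drop in luminescence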
[21] = target: T1, Heat shock factor protein 1 (Mus musculus, UniProt P38532); assay: inhibition of MG132-induced HSE-luciferase signal, confirmation, cell-based, NIH3T3, luminescence, dose retest (AID 2382); type: functional;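 also: NIH3T3 fibroblasts with HSF1-driven luciferase reporter stressed by proteasome inhibitor MG132; luminescence from HSF1-driven luciferase expression after 8 hours of MG132 stress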
T1 sequence (P38532 whole entry): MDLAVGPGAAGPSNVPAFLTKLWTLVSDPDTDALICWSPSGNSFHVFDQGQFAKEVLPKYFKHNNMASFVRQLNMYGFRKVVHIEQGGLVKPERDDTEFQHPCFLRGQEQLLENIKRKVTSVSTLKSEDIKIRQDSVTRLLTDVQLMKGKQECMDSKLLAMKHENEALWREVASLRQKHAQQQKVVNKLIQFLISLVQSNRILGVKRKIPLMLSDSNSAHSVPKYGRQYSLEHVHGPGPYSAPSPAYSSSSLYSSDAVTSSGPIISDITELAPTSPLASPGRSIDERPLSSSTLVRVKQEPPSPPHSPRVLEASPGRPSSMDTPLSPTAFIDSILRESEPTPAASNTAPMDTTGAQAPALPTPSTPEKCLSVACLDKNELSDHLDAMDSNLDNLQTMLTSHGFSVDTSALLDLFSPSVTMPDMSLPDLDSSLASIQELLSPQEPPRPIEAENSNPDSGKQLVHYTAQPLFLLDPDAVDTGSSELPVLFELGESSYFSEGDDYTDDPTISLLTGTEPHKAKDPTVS

[22] = cells; type: functional, cell-based; remark: listed apart in the source
[23] = system: H4; assay: Luminescence Cell-Based Dose Response HTS to Identify Activators of 5'UTR Stem-Loop Driven Prion Protein mRNA Translation in H4 Neuroglioblastoma Cells. [Related pubchem assays: 1829 (Project Summary), 1814 (Primary HTS)]; type: functional; details: Homo sapiens
[24] = Luminescence Cell-Based Dose Confirmation HTS to Identify Activators of 5'UTR Stem-Loop Driven Alpha-Synuclein mRNA Translation in H4 Neuroglioblastoma Cells. [Related pubchem assays: 1829 (Project Summary), 1814 (Primary HTS)]; type: functional
[25] = cells
[26] = inhibitors of intracellular T. cruzi replication, confirmation, NIH3T3 host cells, beta-gal luminescence (AID 2044); type: functional, cell-based;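 also: intracellular parasites grown in NIH/3T3 mouse fibroblasts as host cells; luminescent beta-galactosidase reporter signal from transgenic T. cruzi replicating inside host cells; inhibitors lower the luminescence signal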
[27] = cytotoxicity toward NIH3T3 fibroblasts, dose response, counter-screen, cell-based, ATP luminescence, mouse fibroblasts (AID 2010); type: functional; details: NIH3T3;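 also: cells exposed to compound for about 90 hours before reading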
[28] = Luminescence Cell-Based Dose Response HTS to Identify Activators of Luciferase Translation or Activity in H4 […] Cells. [Related pubchem assays: 1829 (Project Summary), 1814 (Primary HTS)]; type: functional
[29] = Luminescence Cell-Based Dose Response to Identify Activators of 5'UTR Stem-Loop Driven Prion Protein mRNA Translation in H4-C Neuroglioblastoma Cells. [Related pubchem assays: 1829 (Project Summary), 1814 (Primary HTS)]; type: functional
[30] = Luminescence Cell-Based Dose Response to Identify Activators of Luciferase Translation or Activity in H4-C Neuroglioblastoma Cells. [Related pubchem assays: 1829 (Project Summary), 1814 (Primary HTS)]; type: functional
[31] = Luminescence Cell-Based Dose Confirmation to Identify Activators of 5'UTR Stem-Loop Driven Alpha-Synuclein mRNA Translation in H4 Neuroglioblastoma Cells. [Related pubchem assays: 1829 (Project Summary), 1814 (Primary HTS)]; type: functional
[32] = HepG2 cell cytotoxicity, dose response, cytotoxicity control for Shn3 inhibitor project, CellTiter-Glo, cherry-picked (AID 624134); type: functional, cell-based
[33] = control 3'UTR Renilla luciferase suppression, dose response, counter-screen for Shn3 inhibitor project, cell-based, Clone20-Shn3RL, cherry-picked (AID 624133); type: functional
[34] = Shn3 3'UTR reporter inhibitors, dose response, cell-based, Clone20 osteoblasts, firefly luciferase, cherry-picked (AID 624132); type: functional;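 also: firefly luciferase luminescence from reporter carrying the Shn3 3'UTR in osteoblasts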
[35] = microbe, parasite or virus in culture; type: functional; details: Mycobacterium tuberculosis
[36] = target: T2, Rac GTPase-activating protein 1 (Homo sapiens, UniProt Q9H0H5); assay: MgcRacGAP GTPase-activating activity inhibitors, confirmation, biochemical, ADP Hunter fluorescence, primary and confirmatory (AID 624330); type: functional
T2 sequence (Q9H0H5 whole entry): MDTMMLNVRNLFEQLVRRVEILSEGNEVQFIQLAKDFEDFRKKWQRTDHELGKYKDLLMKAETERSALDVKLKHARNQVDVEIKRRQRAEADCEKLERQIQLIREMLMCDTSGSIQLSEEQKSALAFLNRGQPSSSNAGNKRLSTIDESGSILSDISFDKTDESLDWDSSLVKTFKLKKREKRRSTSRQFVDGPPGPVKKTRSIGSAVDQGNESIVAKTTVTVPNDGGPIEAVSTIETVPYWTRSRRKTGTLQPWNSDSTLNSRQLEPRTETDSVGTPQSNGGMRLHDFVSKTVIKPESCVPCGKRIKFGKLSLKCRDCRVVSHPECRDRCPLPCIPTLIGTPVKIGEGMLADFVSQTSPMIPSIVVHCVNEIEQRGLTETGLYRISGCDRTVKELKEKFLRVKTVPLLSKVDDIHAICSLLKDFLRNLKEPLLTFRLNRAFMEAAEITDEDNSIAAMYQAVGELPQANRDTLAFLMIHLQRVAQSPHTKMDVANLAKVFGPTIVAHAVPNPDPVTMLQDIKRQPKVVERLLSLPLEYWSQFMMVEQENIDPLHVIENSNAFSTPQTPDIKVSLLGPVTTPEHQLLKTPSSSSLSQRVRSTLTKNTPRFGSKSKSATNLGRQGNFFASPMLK

[37] = HeLa cell cytotoxicity, dose response, cytotoxicity control for MgcRacGAP inhibitor project (AID 624300); type: functional
[38] = HEp-2 cell cytotoxicity, dose response, cytotoxicity control for RSV inhibitor project, HTS (AID 2410); type: functional; details: human respiratory syncytial virus

COc1ccc(CN2CC3(CCN(C(=O)c4ccccc4)CC3)c3c([nH]c4cc(OC)ccc34)[C@@H]2CO)cc1
active: AC50 [1] 3 µM

CC1CCC(C(C)C)C(OC(=O)c2ccccc2O)C1 (configuration not stated)
inactive: IC50 [2] > 20 µM | IC50 [3] > 20 µM | IC50 [4] > 20 µM | IC50 [5] > 20 µM | IC50 [6] > 20 µM | IC50 [7] > 20 µM | IC50 [8] > 20 µM | IC50 [9] > 20 µM

O=C1NC[C@H](Cc2ccccc2)N(C[C@H]2CCCN2C[C@H](Cc2ccc(O)cc2)N2C[C@H](Cc3ccc(O)cc3)N(CC3CCCCCC3)C(=O)C2=O)C1=O
inactive: EC50 [10] 92.5 µM
active: EC50 [11] 4.46 µM

CCC1Nc2cc(Cl)c(S(N)(=O)=O)cc2S(=O)(=O)N1 (configuration not stated) [ETHIAZIDE]
inactive: IC50 [2] > 20 µM | IC50 [3] > 20 µM | IC50 [4] > 20 µM | IC50 [5] > 20 µM | IC50 [6] > 20 µM | IC50 [7] > 20 µM | IC50 [8] > 20 µM | IC50 [9] > 6.67 µM

COc1ccc2cc3c(N)nn(C(=O)Cc4c[nH]c5ccccc45)c3nc2c1
active: AC50 [12] 0.512 µM | EC50 [13] 23 µM | AC50 [14] 0.261 µM | AC50 [15] 7.5 µM | EC50 [16] < 0.1 µM | AC50 [17] 0.352 µM | EC50 [18] 11.5 µM | AC50 [20] 0.563 µM | EC50 [21] 0.269 µM
> 350 µM (not active): EC50 [19] | EC50 [22]

CN(C)CCN(C(=O)c1ccc2c(c1)OCCO2)c1nc2ccc(Cl)cc2s1
> 60 µM (not active): EC50 [27]
active: EC50 [25] 0.088 µM | EC50 [26] < 0.1 µM | EC50 [28] 15.6 µM
> 120 µM (not active): EC50 [23] | EC50 [24]

COc1cccc(CC2(CO)CCCN(Cc3cn(C)c4ccccc34)C2)c1 (configuration not stated)
active: EC50 [25] 0.051 µM | EC50 [26] < 0.1 µM | EC50 [27] 20 µM

COc1ccc2c3c(n(C)c2c1)[C@H](CO)N(Cc1ccccc1F)CC31CCN(CC2CC2)CC1
active: AC50 [1] 3.46 µM

c1nc2nc[nH]c(N3CCN(Cc4ccc5c(c4)OCO5)CC3)c-2n1
inactive: EC50 [10] 92.5 µM
active: EC50 [11] 0.59 µM

CC(=N)/C(C#N)=C(/O)CSc1nc2cc(C)ccc2[nH]1
active: EC50 [29] 0.321 µM | EC50 [24] 1.68 µM | EC50 [30] 0.296 µM | EC50 [31] 0.424 µM | EC50 [28] < 0.1 µM

C=CCN1CCc2c(cc(O)c(O)c2Br)[C@@H](c2ccccc2)C1
inactive: EC50 [10] 92.5 µM
active: EC50 [11] 0.0982 µM

FC(F)(F)c1nc(-c2cccs2)ncc1-c1nnnn1-c1ccc(Cl)cc1
active: AC50 [12] 29 µM | AC50 [32] 29.1 µM | AC50 [15] 23 µM | AC50 [33] 1.9 µM | AC50 [17] 42.6 µM | AC50 [20] 2.87 µM | AC50 [34] 2.1 µM

Cc1ccc(-c2csc(NC(=O)C3=COCCO3)n2)cc1C
inconclusive: EC50 [28] < 0.1 µM
active: EC50 [29] 2.75 µM | EC50 [30] 0.301 µM | EC50 [31] 0.353 µM | EC50 [26] 0.846 µM
> 60 µM (not active): EC50 [27]

Cc1ccsc1C(=O)C1CCCN(Cc2cnn(C(C)C)c2)C1 (configuration not stated)
active: EC50 [25] 0.01 µM | EC50 [26] < 0.1 µM
inconclusive: EC50 [27] > 60 µM

COc1ccc(C(=O)c2ccccc2O)c(O)c1 [DIOXYBENZONE]
inactive: IC50 [2] > 20 µM | IC50 [4] > 20 µM | IC50 [6] > 20 µM | IC50 [7] > 20 µM | IC50 [8] > 20 µM | IC50 [9] > 20 µM

CCN(CCNCC(O)COc1ccccc1C(C)C)c1cccc(C)c1 (configuration not stated)
active: CC50 [35] 14.2 µM | IC50 [36] 66.7 µM | CC50 [37] 36.1 µM | CC50 [38] 20 µM

CN(C)c1ccc(C(=C2C=CC(=[N+](C)C)C=C2)c2ccc(N(C)C)cc2)cc1 [GENTIAN VIOLET]
active: IC50 [2] 2.05 µM | IC50 [3] 0.394 µM | IC50 [4] 0.466 µM | IC50 [6] 0.471 µM | IC50 [7] 0.514 µM | IC50 [8] 0.994 µM | IC50 [9] 0.528 µM

From ChEMBL document CHEMBL1201862, “PubChem BioAssay data set” (2004)
